According to patent US6660752B2, “2,6-Substituted chroman derivatives useful as beta-3 adrenoreceptor agonists” (Bayer Pharmaceuticals Corporation, priority 2001, dated 2003):
Structures can show the parent of a compound that is named as a salt. Where two headings read alike, the source gives them in different places.

Molecular target: T1, human beta-3-adrenergic receptor (Homo sapiens, UniProt P13945)
T1 construct: stably express full-length human beta-3-adrenergic receptor; expressed in transfected cells; host or cells: Chinese hamster ovary (CHO) cells
T1 sequence (P13945 whole entry): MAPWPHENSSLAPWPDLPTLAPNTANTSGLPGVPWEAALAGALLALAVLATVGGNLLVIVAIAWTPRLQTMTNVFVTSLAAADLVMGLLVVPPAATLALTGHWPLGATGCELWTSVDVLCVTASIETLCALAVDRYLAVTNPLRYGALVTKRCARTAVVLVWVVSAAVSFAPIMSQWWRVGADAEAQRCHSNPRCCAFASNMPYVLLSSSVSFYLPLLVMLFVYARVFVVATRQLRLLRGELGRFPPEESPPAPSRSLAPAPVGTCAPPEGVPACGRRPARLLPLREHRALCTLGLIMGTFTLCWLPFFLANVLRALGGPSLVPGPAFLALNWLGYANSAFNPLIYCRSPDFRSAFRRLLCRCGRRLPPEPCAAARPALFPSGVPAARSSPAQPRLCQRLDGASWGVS
Assay: cAMP production (beta-3 agonist activity) in CHO cells stably expressing human beta-3-adrenergic receptor, cAMP SPA
Assay type: cell-based
Conditions: CHO cells expressing full-length human beta-3-adrenergic receptor, 30 min incubation, 10 μM to 3 nM
Method in brief: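 CHO cells stably expressing full-length receptor treated 30 min at 37° C with compounds (10 μM to 3 nM, 3-fold dilutions) in KRP buffer pH 7.4 with […] IBMX and 1% DMSO. Lysed cells assayed for cAMP by SPA; EC50 derived from cAMP concentration-response curves.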

[1] = read-out: Beta-3 Agonistic Activity: Compounds with EC50 values ≦1 μM

| SMILES | EC50 [1] [nM] | EC50 (read-out: Beta-3 Agonistic Activity: Compounds with EC50 values >1 μM) [nM] |
| --- | --- | --- |
| O=C(O)c1ccc(-c2ccc3c(c2)CC[C@H](CNC[C@H](O)c2cccnc2)O3)cc1Oc1ccc(Cl)cc1 [Example 194, 2-(4-chlorophenoxy)-4-[(2R)-2-({[(2R)-2-hydroxy-2-(3-pyridinyl)ethyl]amino}methyl)-3,4-dihydro-2H-chromen-6-yl]benzoic acid] | ≤ 1000 | – |
| CS(=O)(=O)c1ccc(Oc2cc(-c3ccc4c(c3)CC[C@H](CNC[C@H](O)c3cccnc3)O4)ccc2C(=O)O)cc1 [Example 198, 4-[(2R)-2-({[(2R)-2-hydroxy-2-(3-pyridinyl)ethyl]amino}methyl)-3,4-dihydro-2H-chromen-6-yl]-2-[4-(methylsulfonyl)phenoxy]benzoic acid] | ≤ 1000 | – |
| O=C(O)c1ccc(-c2ccc3c(c2)CC[C@H](CNC[C@@H](O)c2c(F)ccc(Cl)c2F)O3)cc1 [Example 348] | ≤ 1000 | – |
| CC1(O)C(=O)NN(c2cccc(-c3ccc4c(c3)CC[C@@H](CNC[C@H](O)c3cccnc3)O4)c2)C1=O (stereo partly drawn) [Example 314, 4-hydroxy-1-{3-[(2S)-2-({[(2R)-2-hydroxy-2-(3-pyridinyl)ethyl]amino}methyl)-3,4-dihydro-2H-chromen-6-yl]phenyl}-4-methyl-3,5-pyrazolidinedione Dihydrochloride] | ≤ 1000 | – |
| COc1ccc(Oc2cc(-c3ccc4c(c3)CC[C@H](CNC[C@H](O)c3cccnc3)O4)ccc2C(=O)O)cc1 [Example 196, 4-[(2R)-2-({[(2R)-2-hydroxy-2-(3-pyridinyl)ethyl]amino}methyl)-3,4-dihydro-2H-chromen-6-yl]-2-(4-methoxyphenoxy)benzoic acid] | ≤ 1000 | – |
| COC(=O)c1ccc(-c2ccc3c(c2)CC[C@H](CNC[C@H](O)c2ccc(N)nc2)O3)cc1 [Example 381] | ≤ 1000 | – |
| N#Cc1ccc(NS(=O)(=O)c2ccc(-c3ccc4c(c3)CC[C@H](CNC[C@H](O)c3cccnc3)O4)cc2OC(F)(F)F)cc1 [Example 262, N-(4-cyanophenyl)-4-[(2R)-2-({[(2R)-2-hydroxy-2-(3-pyridinyl)ethyl]amino}methyl)-3,4-dihydro-2H-chromen-6-yl]-2-(trifluoromethoxy)benzenesulfonamide] | ≤ 1000 | – |
| O=C(NS(=O)(=O)c1ccc(-c2ccc3c(c2)CC[C@H](CNC[C@H](O)c2cccnc2)O3)cc1)C(C(F)(F)F)C(F)(F)F [Example 288] | ≤ 1000 | – |
| COc1cc(OC)nc(NS(=O)(=O)c2ccc(-c3ccc4c(c3)CC[C@H](CNC[C@H](O)c3cccnc3)O4)cc2)n1 [Example 267] | ≤ 1000 | – |
| Cc1ccc(Oc2cc(-c3ccc4c(c3)CC[C@H](CNC[C@H](O)c3cccnc3)O4)ccc2C(=O)O)cc1 [Example 195, 4-[(2R)-2-({[(2R)-2-hydroxy-2-(3-pyridinyl)ethyl]amino}methyl)-3,4-dihydro-2H-chromen-6-yl]-2-(4-methylphenoxy)benzoic acid] | ≤ 1000 | – |
| COc1cccc(C(=O)NS(=O)(=O)c2ccc(-c3ccc4c(c3)CC[C@H](CNC[C@H](O)c3cccnc3)O4)cc2)c1 [Example 293, 4-[(2R)-2-({[(2R)-2-hydroxy-2-(3-pyridinyl)ethyl]amino}methyl)-3,4-dihydro-2H-chromen-6-yl]-N-(3-methoxybenzoyl)benzenesulfonamide] | ≤ 1000 | – |
| Cc1ccc(C(=O)NS(=O)(=O)c2cccc(-c3ccc4c(c3)CC[C@H](CNC[C@H](O)c3cccnc3)O4)c2)cc1 [Example 299] | ≤ 1000 | – |
| COC(=O)c1cccc(-c2ccc3c(c2)CC[C@H](CNC[C@H](O)c2ccc(N)nc2)O3)c1 [Example 382] | ≤ 1000 | – |
| O=C(O)c1ccc(-c2ccc3c(c2)CC[C@H](CNC[C@H](O)c2cccc(Cl)c2)O3)cc1 [Example 344, 4-[(2R)-2-({[(2R)-2-(3-chlorophenyl)-2-hydroxyethyl]amino}methyl)-3,4-dihydro-2H-chromen-6-yl]benzoic acid] | ≤ 1000 | – |
| O=C(CS(=O)(=O)c1ccccc1)c1ccc(-c2ccc3c(c2)CC[C@H](CNC[C@H](O)c2cccnc2)O3)cc1 [Example 308, 1-{4-[(2R)-2-({[(2R)-2-hydroxy-2-(3-pyridinyl)ethyl]amino}methyl)-3,4-dihydro-2H-chromen-6-yl]phenyl}-2-(phenylsulfonyl)ethanone Dihydrochloride] | ≤ 1000 | – |
| Cc1ccc(NC(=O)NS(=O)(=O)c2cccc(-c3ccc4c(c3)CC[C@H](CNC[C@H](O)c3cccnc3)O4)c2)cc1 [Example 324, 3-((1R)-1-hydroxy-2-{[((2R)-6-{3-[({[(4-methylphenyl)amino]carbonyl}amino)sulfonyl]phenyl}-3,4-dihydro-2H-chromen-2-yl)methyl]amino}ethyl)pyridine Hydrochloride] | ≤ 1000 | – |
| O=C(Nc1ccccc1)NS(=O)(=O)c1ccc(-c2ccc3c(c2)CC[C@H](CNC[C@H](O)c2cccnc2)O3)cc1 [Example 328, 3-[(1R)-2-({[(2R)-6-(4-{[(anilinocarbonyl)amino]sulfonyl}phenyl)-3,4-dihydro-2H-chromen-2-yl]methyl}amino)-1-hydroxyethyl]pyridine] | ≤ 1000 | – |
| O=C1CCc2cc(NS(=O)(=O)c3ccc(-c4ccc5c(c4)CC[C@H](CNC[C@H](O)c4cccnc4)O5)cc3)ccc21 [Example 258] | ≤ 1000 | – |
| O=C(Nc1ccc(Cl)cc1)NS(=O)(=O)c1ccc(-c2ccc3c(c2)CC[C@H](CNC[C@H](O)c2cccnc2)O3)cc1 [Example 340] | ≤ 1000 | – |

Now from value to molecule:

| EC50 [1] [nM] | EC50 (read-out: Beta-3 Agonistic Activity: Compounds with EC50 values >1 μM) [nM] | SMILES |
| --- | --- | --- |
| ≤ 1000 | – | O=C(Nc1ccc(-c2ccc3c(c2)CC[C@H](CNC[C@H](O)c2cccnc2)O3)nc1)c1ccccc1 [Example 322] |
| ≤ 1000 | – | CS(=O)(=O)Nc1ccc(-c2ccc3c(c2)CC[C@H](CNC[C@H](O)c2cccnc2)O3)nc1 [Example 321, N-{6-[(2R)-2-({[(2R)-2-hydroxy-2-(3-pyridinyl)ethyl]amino}methyl)-3,4-dihydro-2H-chromen-6-yl]-3-pyridinyl}methanesulfonamide] |
| ≤ 1000 | – | O=S(=O)(Nc1ncccn1)c1ccc(-c2ccc3c(c2)CC[C@H](CNC[C@H](O)c2cccnc2)O3)cc1 [Example 249A, 4-[(2R)-2-({[(2R)-2-hydroxy-2-(3-pyridinyl)ethyl]amino}methyl)-3,4-dihydro-2H-chromen-6-yl]-N-(2-pyrimidinyl)benzenesulfonamide] |
| – | > 1000 | O=[N+]([O-])c1cccc(-c2ccc3c(c2)CC[C@H](CNC[C@H](O)c2cccnc2)O3)c1 [Example 42] |
| ≤ 1000 | – | O=S(=O)(Nc1ccc(-c2ccc3c(c2)CC[C@H](CNC[C@H](O)c2cccnc2)O3)nc1)c1ccccc1 [Example 319, N-{6-[(2R)-2-({[(2R)-2-hydroxy-2-(3-pyridinyl)ethyl]amino}methyl)-3,4-dihydro-2H-chromen-6-yl]-3-pyridinyl}benzenesulfonamide Trihydrochloride] |
| ≤ 1000 | – | O[C@@H](CNC[C@H]1CCc2cc(I)ccc2O1)c1cccnc1 [Example 36, (1R)-2-({[(2R)-6-iodo-3,4-dihydro-2H-chromen-2-yl]methyl}amino)-1-(3-pyridinyl)ethanol] |
| ≤ 1000 | – | CC(C)Oc1cc(-c2ccc3c(c2)CC[C@H](CNC[C@H](O)c2cccnc2)O3)ccc1C(=O)O [Example 188, 4-[(2R)-2-({[(2R)-2-hydroxy-2-(3-pyridinyl)ethyl]amino}methyl)-3,4-dihydro-2H-chromen-6-yl]-2-isopropoxybenzoic acid] |
| ≤ 1000 | – | COc1ccc(-c2ccc3c(c2)CC[C@H](CNC[C@H](O)c2cccnc2)O3)cc1S(=O)(=O)Nc1ccc(C(C)=O)cc1 [Example 280] |
| ≤ 1000 | – | O=S(=O)(Nc1cnccc1C(F)(F)F)c1ccc(-c2ccc3c(c2)CC[C@H](CNC[C@H](O)c2cccnc2)O3)cc1 [Example 251] |
| ≤ 1000 | – | COc1ccc(-c2ccc3c(c2)CC[C@H](CNC[C@H](O)c2cccnc2)O3)cc1S(=O)(=O)Nc1ncccn1 [Example 272] |
| ≤ 1000 | – | COc1cc(-c2ccc3c(c2)CC[C@H](CNC[C@H](O)c2cccnc2)O3)ccc1C(=O)O [Example 184, 4-[(2R)-2-({[(2R)-2-hydroxy-2-(3-pyridinyl)ethyl]amino}methyl)-3,4-dihydro-2H-chromen-6-yl]-2-methoxybenzoic acid] |
| ≤ 1000 | – | Cc1ccnc(NS(=O)(=O)c2ccc(-c3ccc4c(c3)CC[C@H](CNC[C@H](O)c3cccnc3)O4)cc2)n1 [Example 268, 4-[(2R)-2-({[(2R)-2-hydroxy-2-(3-pyridinyl)ethyl]amino}methyl)-3,4-dihydro-2H-chromen-6-yl]-N-(4-methyl-2-pyrimidinyl)benzenesulfonamide] |
| ≤ 1000 | – | COc1ccc(-c2ccc3c(c2)CC[C@H](CNC[C@H](O)c2cccnc2)O3)cc1S(=O)(=O)Nc1nccc(C)n1 [Example 269] |
| ≤ 1000 | – | O=S(=O)(Nc1ncccn1)c1cccc(-c2ccc3c(c2)CC[C@H](CNC[C@H](O)c2cccnc2)O3)c1 [Example 261, 3-[(2R)-2-({[(2R)-2-hydroxy-2-(3-pyridinyl)ethyl]amino}methyl)-3,4-dihydro-2H-chromen-6-yl]-N-(2-pyrimidinyl)benzenesulfonamide] |
| ≤ 1000 | – | CC(C)(C)C(=O)NS(=O)(=O)c1ccc(-c2ccc3c(c2)CC[C@H](CNC[C@H](O)c2cccnc2)O3)cc1 [Example 292, N-(2,2-dimethylpropanoyl)-4-[(2R)-2-({[(2R)-2-hydroxy-2-(3-pyridinyl)ethyl]amino}methyl)-3,4-dihydro-2H-chromen-6-yl]benzenesulfonamide] |
| ≤ 1000 | – | O[C@@H](CNC[C@H]1CCc2cc(-c3ccc(F)cc3)ccc2O1)c1cccnc1 [Example 48] |
| ≤ 1000 | – | CCC(CC)C(=O)NS(=O)(=O)c1ccc(-c2ccc3c(c2)CC[C@H](CNC[C@H](O)c2cccnc2)O3)cc1 [Example 289] |
| ≤ 1000 | – | CN1C(=O)c2ccc(NS(=O)(=O)c3cccc(-c4ccc5c(c4)CC[C@H](CNC[C@H](O)c4cccnc4)O5)c3)cc2C1=O [Example 252] |
| ≤ 1000 | – | CCC(=O)NS(=O)(=O)c1cccc(-c2ccc3c(c2)CC[C@H](CNC[C@H](O)c2cccnc2)O3)c1 [Example 305] |
